In patent publication US20250213558A1, “T-TYPE CALCIUM CHANNEL MODULATORS COMPRISING A PIPERAZINE OR 1,4-DIAZEPANE CORE AND METHODS OF USE THEREOF” (Praxis Precision Medicines, Inc., priority 2022, published 2025):
Like-named read-outs stand apart in the source and are kept apart here.

Target: T1, Human Cav3.1 calcium channel (Homo sapiens, UniProt O43497)
T1 construct: expressed in transfected cells; host or cells: HEK-293 natClytin/TASK1+Cav3.1 cell line
Assay: Human Cav3.1 calcium channel patch clamp assay (SyncroPatch 384PE; single point and IC50, voltage dependent block)
Assay type: cell-based
Conditions: for % Inhibition (Single Point Data): patch clamp
Procedure, shortened: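 Automated whole-cell patch clamp at room temperature, cells held at −120 mV; 100 ms step to −20 mV (resting block), then 1600 ms at −65 mV and a second −20 mV step (voltage-dependent block), every 15 s. Peak currents averaged over last 3 sweeps; % inhibition relative to nickel-sensitive current.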

[1] = Testing Conc 1.25, HEK-293 natClytin/TASK1+Cav3.1 cell line
[2] = voltage dependent block (VDB), HEK-293 natClytin/TASK1+Cav3.1 cell line, read-out: Cav3.1 IC50

T1 sequence (O43497 whole entry): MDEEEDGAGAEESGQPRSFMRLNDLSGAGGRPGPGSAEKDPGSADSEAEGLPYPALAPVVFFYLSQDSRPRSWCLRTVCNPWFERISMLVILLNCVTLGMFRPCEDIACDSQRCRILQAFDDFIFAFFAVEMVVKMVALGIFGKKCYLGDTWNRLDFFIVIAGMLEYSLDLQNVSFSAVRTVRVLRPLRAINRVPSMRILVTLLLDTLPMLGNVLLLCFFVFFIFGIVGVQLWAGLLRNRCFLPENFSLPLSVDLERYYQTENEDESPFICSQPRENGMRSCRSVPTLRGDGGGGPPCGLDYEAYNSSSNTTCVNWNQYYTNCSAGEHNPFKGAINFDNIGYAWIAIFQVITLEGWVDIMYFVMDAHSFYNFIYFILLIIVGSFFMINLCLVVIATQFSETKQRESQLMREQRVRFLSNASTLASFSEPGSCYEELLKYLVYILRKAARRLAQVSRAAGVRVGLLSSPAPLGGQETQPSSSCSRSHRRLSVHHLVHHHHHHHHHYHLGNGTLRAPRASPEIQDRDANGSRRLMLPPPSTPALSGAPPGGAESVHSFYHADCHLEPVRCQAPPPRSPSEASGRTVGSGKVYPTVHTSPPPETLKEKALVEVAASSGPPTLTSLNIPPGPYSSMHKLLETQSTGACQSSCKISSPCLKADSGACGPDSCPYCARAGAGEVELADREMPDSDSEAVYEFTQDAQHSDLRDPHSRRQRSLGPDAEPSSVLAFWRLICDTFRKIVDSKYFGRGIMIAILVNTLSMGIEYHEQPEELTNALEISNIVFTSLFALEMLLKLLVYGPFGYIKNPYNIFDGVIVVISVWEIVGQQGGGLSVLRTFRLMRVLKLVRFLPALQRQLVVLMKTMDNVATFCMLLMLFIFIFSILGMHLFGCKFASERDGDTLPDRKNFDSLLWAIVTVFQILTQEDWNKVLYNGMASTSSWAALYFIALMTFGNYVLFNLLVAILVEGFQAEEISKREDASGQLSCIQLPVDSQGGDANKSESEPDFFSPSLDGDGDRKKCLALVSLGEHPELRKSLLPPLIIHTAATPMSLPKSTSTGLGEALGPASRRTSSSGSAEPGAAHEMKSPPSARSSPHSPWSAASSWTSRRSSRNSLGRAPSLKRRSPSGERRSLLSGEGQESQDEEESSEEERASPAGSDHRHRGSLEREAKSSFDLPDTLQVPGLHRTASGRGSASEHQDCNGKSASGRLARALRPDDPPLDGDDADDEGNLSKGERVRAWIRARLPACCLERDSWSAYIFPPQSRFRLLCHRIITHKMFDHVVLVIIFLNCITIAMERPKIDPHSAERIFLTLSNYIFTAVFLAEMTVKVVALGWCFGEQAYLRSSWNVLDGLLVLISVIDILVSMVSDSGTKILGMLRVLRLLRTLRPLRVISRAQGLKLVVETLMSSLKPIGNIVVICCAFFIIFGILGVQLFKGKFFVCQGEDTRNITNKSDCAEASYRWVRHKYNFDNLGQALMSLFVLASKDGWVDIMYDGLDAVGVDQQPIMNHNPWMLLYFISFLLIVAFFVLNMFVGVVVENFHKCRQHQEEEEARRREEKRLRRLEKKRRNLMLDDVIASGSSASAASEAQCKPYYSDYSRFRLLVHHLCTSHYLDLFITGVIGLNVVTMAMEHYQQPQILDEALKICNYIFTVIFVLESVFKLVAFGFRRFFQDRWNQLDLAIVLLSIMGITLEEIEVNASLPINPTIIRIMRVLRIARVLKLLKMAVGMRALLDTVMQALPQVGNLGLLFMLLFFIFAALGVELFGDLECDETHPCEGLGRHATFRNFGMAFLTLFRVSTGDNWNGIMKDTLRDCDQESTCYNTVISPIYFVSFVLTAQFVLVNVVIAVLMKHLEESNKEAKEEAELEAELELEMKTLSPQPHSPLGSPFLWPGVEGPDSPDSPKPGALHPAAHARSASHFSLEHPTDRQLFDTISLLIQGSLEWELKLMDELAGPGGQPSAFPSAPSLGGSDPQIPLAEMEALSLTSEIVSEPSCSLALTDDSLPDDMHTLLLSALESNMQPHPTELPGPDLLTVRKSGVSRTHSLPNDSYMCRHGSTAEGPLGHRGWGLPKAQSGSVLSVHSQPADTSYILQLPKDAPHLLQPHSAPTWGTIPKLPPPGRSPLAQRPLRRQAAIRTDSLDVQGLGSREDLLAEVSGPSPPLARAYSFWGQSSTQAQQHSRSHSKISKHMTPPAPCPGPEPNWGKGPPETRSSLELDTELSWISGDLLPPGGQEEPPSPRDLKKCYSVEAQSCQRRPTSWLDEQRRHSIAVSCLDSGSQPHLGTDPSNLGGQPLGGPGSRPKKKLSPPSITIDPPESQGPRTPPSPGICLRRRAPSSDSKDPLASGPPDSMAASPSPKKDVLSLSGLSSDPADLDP

Row | % Inhibition (Single Point Data) (Testing Conc 1, HEK-293 natClytin/TASK1+Cav3.1 cell line) [%] | SMILES | % Inhibition (Single Point Data) [1] [%] | IC50 [2] [nM] | IC50 [nM]
1 |  | O=C(CN1CC2CC1CN2CC(=O)NC1(C(F)(F)F)CC1)Nc1cc(F)cc(Cl)c1 (stereo not shown) [Compound 223] | 75.83 | 1250 | 
2 |  | CC(C)(C)NC(=O)CN1C[C@@H]2C[C@H]1CN2CC(=O)Nc1cc(F)c(F)c(Cl)c1 [Compound 348] |  | < 78.2 | 
3 |  | CC(C)(C)NC(=O)CN1CC2CC1CN2CC(=O)Nc1cccc(C(F)F)c1 (stereo not shown) [Compound 13] | 64.618 | 490 | 
4 |  | CC(C)(C)NC(=O)CN1C[C@@H]2C[C@H]1CN2CC(=O)Nc1cc(F)cc(OC(F)F)c1 [Compound 22] | 97.77 | < 78.2 | 
5 |  | CC(C)(C)NC(=O)CN1C2CC1CN(CC(=O)Nc1cc(Cl)cc(Cl)c1)C2 [Compound 286] | 89.866 | 106 | 
6 |  | CN(C(=O)CN1C2CCC1CN(Cc1nc3c(Cl)cc(F)cc3[nH]1)C2)C(C)(C)C(=O)O [Compound 87] | 7.971 |  | 
7 |  | O=C(CN1C[C@@H]2C[C@H]1CN2CC(=O)NC1(C(F)(F)F)CC1)Nc1cc(F)cc(OC(F)F)c1 [Compound 324] | 100.07 |  | 
8 |  | COc1cc(F)cc(NC(=O)CN2CC3CC(C2)N3CC(=O)NC(C)(C)C)c1 [Compound 211] | 81.284 | 233 | 
9 |  | CC(C)(CCN1C2CC1CN(Cc1nc3c(Cl)cc(F)cc3[nH]1)C2)C(F)(F)F [Compound 172] | 94.964 |  | 
10 |  | CC(C)(C)CC(=O)N1C2CC1CN(Cc1nc3c(Cl)cc(F)cc3[nH]1)C2 [Compound 116] |  | 2460 | 
11 |  | Fc1cc(Cl)c2nc(CN3CCN(Cc4cccc(Cl)c4)CC3)[nH]c2c1 [Compound 67] | 83.039 | 490 | 
12 |  | CC(C)(C)NC(=O)CN1C2CCC1CN(Cc1c[nH]c(-c3ccccc3)n1)C2 [Compound 197] | 45.013 | 1540 | 
13 |  | CC(C)(NC(=O)CN1C2CC1CN(CC(=O)Nc1cc(F)cc(Cl)c1)C2)C(F)(F)F [Compound 129] | 89.48 | 222 | 
14 |  | Fc1cc(Cl)c2nc(CN3CC4CC(C3)N4CCC3(F)CCCC3)[nH]c2c1 [Compound 113] | 94.677 |  | 
15 |  | CC(C(=O)Nc1ccc(F)c(OC(F)F)c1)N1CC2CC(C1)N2CC(=O)NC1(C(F)(F)F)CC1 (stereo not shown) [Compound 255] | 66.406 | 431 | 
16 | 25.144 | CC(C)(C)NC(=O)CN1CCC(=O)N(CC(=O)Nc2cc(F)cc(Cl)c2)CC1 [Compound 37] |  |  | 
17 |  | Cc1cc(F)cc(NC(=O)CN2C[C@@H]3C[C@H]2CN3CC(=O)NC(C)(C)C)c1 [Compound 276] | 71.467 | 474 | 
18 |  | CC1(C)CC(CN2C3CCC2CN(Cc2nc4c(Cl)cc(F)cc4[nH]2)C3)CCO1 (stereo not shown) [Compound 96] | 93.367 | 205 | 
19 |  | COc1cc(F)cc(NC(=O)CN2C[C@@H]3C[C@H]2CN3CC(=O)NC2(C(F)(F)F)CC2)c1 [Compound 320] | 87.599 | 185 | 

Row | % Inhibition (Single Point Data) (Testing Conc 1, HEK-293 natClytin/TASK1+Cav3.1 cell line) [%] | SMILES | % Inhibition (Single Point Data) [1] [%] | IC50 [2] [nM] | IC50 [nM]
20 |  | O=C(CN1CC2CC(C1)N2CC(F)C1CCCCC1)Nc1cc(F)cc(Cl)c1 (stereo not shown) [Compound 49] | 44.843 | 1160 | 
21 |  | O=S(=O)(CCN1C2CC1CN(Cc1nc3c(Cl)ccc(F)c3[nH]1)C2)c1ccccc1 [Compound 168] | 66.949 | 711 | 
22 |  | Fc1cc(Cl)c2nc(CN3CCN(Cc4ccc5c(c4)OCCO5)CC3)[nH]c2c1 [Compound 68] | 87.04 | 215 | 
23 |  | O[C@H]1CC[C@@H](OCCN2C3CC2CN(Cc2nc4c(Cl)cc(F)cc4[nH]2)C3)CC1 [Compound 132] | 6.2687 | 5900 | 
24 |  | O=C(CN1CC2CC(C1)N2CCNC(=O)C1(C(F)(F)F)CC1)Nc1ccc(F)c(Cl)c1 [Compound 16] | 94.311 |  | 
25 |  | O=C(CN1C[C@@H]2C[C@H]1CN2CC(=O)N1CCC(F)(F)CC1)NC12CC3CC(CC(C3)C1)C2 [Compound 316] | 70.161 | 370 | 
26 |  | [2H]C([2H])([2H])C(NC(=O)CN1CC2CC1CN2CC(=O)Nc1cc(F)cc(Cl)c1)(C([2H])([2H])[2H])C([2H])([2H])[2H] (stereo not shown) [Compound 57] | 95.078 |  | 
27 |  | Cc1cc(Cl)cc(NC(=O)CN2C[C@@H]3C[C@H]2CN3CC(=O)NC(C)(C)C)c1 [Compound 283] | 94.657 | 140 | 
28 |  | COc1cccc(CN2CCN(Cc3nc4c(Cl)cc(F)cc4[nH]3)CC2)c1 [Compound 66] | 88.018 | 306 | 
29 |  | CC1(NC(=O)CN2C3CCC2CN(Cc2nc4c(Cl)cc(F)cc4[nH]2)C3)COC1 [Compound 82] | 98.209 |  | 
30 |  | CC(C)(C)NC(=O)CN1C2CC1CN(Cc1nc3c(C(F)(F)F)cccc3[nH]1)C2 [Compound 122] | 80.218 | 224 | 
31 |  | COCC(C)(C)NC(=O)CN1C2CCC1CN(Cc1nc3c(Cl)cc(F)cc3[nH]1)C2 [Compound 80] | 96.659 |  | 
32 |  | CC1(C)CCN(C(=O)CN2C3CCC2CN(Cc2nc4c(Cl)cc(F)cc4[nH]2)C3)C1 [Compound 93] | 93.884 | 284 | 
33 |  | O=C(CN1CC2CC1CN2CCNC(=O)C1(C(F)(F)F)CC1)Nc1ccc(F)c(Cl)c1 (stereo not shown) [Compound 18] | 83.021 | 337 | 
34 |  | CC(C)Cc1cc(CNC(=O)CN2CC3CC(C2)N3CC(=O)NC(C)(C)C)nn1-c1ccccc1 [Compound 301] | 19.445 | 3240 | 
35 |  | O=C(NCCN1C2CC1CN(Cc1nc3c(Cl)cc(F)cc3[nH]1)C2)C1(C(F)(F)F)CC1 [Compound 135] | 101.33 | 156 | 
36 |  | COc1ccc(F)c2[nH]c(CN3CC4CC(C3)N4CC(=O)NC(C)(C)C(F)(F)F)nc12 [Compound 183] | 95.323 |  | 87.4
37 |  | CC(C)(C)NC(=O)CN1CC2CC1CN2CC(=O)Nc1cc(F)cc(Cl)c1 (stereo not shown) [Compound 130] | 92.618 | 121 | 
38 |  | CC(C)(CCN1C[C@@H]2C[C@H]1CN2CC(=O)NC12CC3CC(CC(C3)C1)C2)C(F)(F)F [Compound 329] | 59.633 |  | 

Row | % Inhibition (Single Point Data) (Testing Conc 1, HEK-293 natClytin/TASK1+Cav3.1 cell line) [%] | SMILES | % Inhibition (Single Point Data) [1] [%] | IC50 [2] [nM] | IC50 [nM]
39 |  | COC12CC3CC(CC(NC(=O)CN4C[C@@H]5C[C@H]4CN5CC(=O)NC(C)(C)C)(C3)C1)C2 [Compound 342] | 25.743 | 1350 | 
40 |  | Fc1cc(Cl)c2nc(CN3CC4CCC(C3)N4CCOC3CCCCC3)[nH]c2c1 [Compound 95] | 100.41 |  | 
41 |  | COc1cc(NC(=O)CN2CC3CC(C2)N3CC(=O)NC(C)(C)C)ccc1Cl [Compound 331] | 102.24 |  | 
42 |  | CC(C)(C)NC(=O)CN1C2CC(CC(=O)Nc3cc(F)cc(Cl)c3)CC1C2 (stereo not shown) [Compound 373] |  | 5820 | 
43 |  | O=C(NCCN1C2CC1CN(Cc1nc3c(Cl)cc(F)cc3[nH]1)C2)C1(C(F)(F)F)CCC1 [Compound 138] | 98.457 |  | 
44 |  | CC(C)(C)NC(=O)CN1C2CC1CN(Cc1nc3c(Cl)cc(F)cc3[nH]1)C2 [Compound 62, N-(tert-butyl)-2-(3-((4-chloro-6-fluoro-1H-benzo[d]imidazol-2-yl)methyl)-3,6-diazabicyclo[3.1.1]heptan-6-yl)acetamide] | 102.05 |  | < 78.2
45 |  | COc1cc(F)cc(NC(=O)CN2C[C@@H]3C[C@H]2CN3CC(=O)NC(C)(C)C)c1 [Compound 275] | 93.716 |  | 
46 |  | CC(C(=O)Nc1cc(F)cc(OC(F)F)c1)N1C[C@@H]2C[C@H]1CN2CC(=O)NC(C)(C)C (stereo partly shown) [Compound 265] | 88.764 |  | 
47 |  | CC(C)(NC(=O)CN1C2CC1CN(Cc1nc3c(Cl)ccc(F)c3[nH]1)C2)C(F)(F)F [Compound 181] | 102.49 |  | 42.3
48 |  | O=C(CN1CC2CC(C1)N2CCNC(=O)C1(C(F)(F)F)CCC1)Nc1ccc(F)c(Cl)c1 [Compound 17] | 99.317 |  | < 78.2
49 |  | CC(C)(C)NC(=O)CN1C2CCC1CN(Cc1nc3c(Cl)cc(F)cc3[nH]1)CC2 (stereo not shown) [Compound 65] | 82.104 | 708 | 
50 |  | O=C(CN1CC2CC(C1)N2CC(=O)NC1(C(F)(F)F)CC1)NC12CC3CC(CC(C3)C1)C2 [Compound 281] | 54.316 | 900 | 
51 |  | CC(C)(C)NC(=O)CN1CC[C@H](CNc2nccc3ccc(Cl)cc23)CC1=O [Compound 45] | 58.802 |  | 
52 |  | Cc1cccc2[nH]c(CN3CC4CC(C3)N4CCC3CCC(F)(F)CC3)nc12 [Compound 157] | 79.835 | 297 | 
53 |  | Cc1ccc(F)c2[nH]c(CN3CC4CC(C3)N4CC(=O)NC(C)(C)C(F)(F)F)nc12 [Compound 144] | 98.286 |  | 74.5
54 |  | COc1cc(F)cc2[nH]c(CN3CC4CC(C3)N4CC(=O)NC(C)(C)C)nc12 [Compound 164] | 84.695 |  | 
55 |  | CC(C)(C)NC(=O)CN1C2CCC1CN(Cc1nc3c(Cl)ccc(F)c3[nH]1)C2 [Compound 185, N-tert-butyl-2-[3-[(4-chloro-7-fluoro-1H-benzimidazol-2-yl)methyl]-3,8-diazabicyclo[3.2.1]octan-8-yl]acetamide] | 99.412 |  | < 78.2
56 |  | O=C(CN1C2CCC1CN(Cc1nc3c(Cl)cc(F)cc3[nH]1)C2)N1CCOCC1 [Compound 83] | 84.836 | 441 | 
57 |  | Cc1cc(NC(=O)CN2C[C@@H]3C[C@H]2CN3CC(=O)NC(C)(C)C)ccc1F [Compound 341] | 62.973 | 447 | 
